# ChEMBL document CHEMBL1149313, “Synthesis of classical, three-carbon-bridged 5-substituted furo[2,3-d]pyrimidine and 6-substituted pyrrolo[2,3-d]pyrimidine analogues as antifolates” (J Med Chem, 2004)
# B1: Folylpolyglutamate synthase, mitochondrial (Homo sapiens), Q05932 (protein)
# chain: MSRARSHLRAALFLAAASARGITTQVAARRGLSAWPVPQEPSMEYQDAVRMLNTLQTNAGYLEQVKRQRGDPQTQLEAMELYLARSGLQVEDLDRLNIIHVTGTKGKGSTCAFTECILRSYGLKTGFFSSPHLVQVRERIRINGQPISPELFTKYFWRLYHRLEETKDGSCVSMPPYFRFLTLMAFHVFLQEKVDLAVVEVGIGGAYDCTNIIRKPVVCGVSSLGIDHTSLLGDTVEKIAWQKGGIFKQGVPAFTVLQPEGPLAVLRDRAQQISCPLYLCPMLEALEEGGPPLTLGLEGEHQRSNAALALQLAHCWLQRQDRHGAGEPKASRPGLLWQLPLAPVFQPTSHMRLGLRNTEWPGRTQVLRRGPLTWYLDGAHTASSAQACVRWFRQALQGRERPSGGPEVRVLLFNATGDRDPAALLKLLQPCQFDYAVFCPNLTEVSSTGNADQQNFTVTLDQVLLRCLEHQQHWNHLDEEQASPDLWSAPSPEPGGSASLLLAPHPPHTCSASSLVFSCISHALQWISQGRDPIFQPPSPPKGLLTHPVAHSGASILREAAAIHVLVTGSLHLVGGVLKLLEPALSQ
# Key:
# [1] = target: T1, Folylpolyglutamate synthase, mitochondrial (Homo sapiens) (UniProt Q05932); assay: Ratio of Vmax to Km of human recombinant cytosolic FPGS
# T1 sequence (whole entry): B1 chain
# [2] = target: Thymidylate synthase (Homo sapiens, UniProt P04818); assay: Inhibition of human recombinant thymidylate synthase
# [3] = target: T2, Thymidylate synthase (Lactobacillus casei, UniProt P00469); assay: Inhibition of Lactobacillus casei thymidylate synthase; parameters: species or system Lacticaseibacillus casei
# T2 sequence (P00469 whole entry): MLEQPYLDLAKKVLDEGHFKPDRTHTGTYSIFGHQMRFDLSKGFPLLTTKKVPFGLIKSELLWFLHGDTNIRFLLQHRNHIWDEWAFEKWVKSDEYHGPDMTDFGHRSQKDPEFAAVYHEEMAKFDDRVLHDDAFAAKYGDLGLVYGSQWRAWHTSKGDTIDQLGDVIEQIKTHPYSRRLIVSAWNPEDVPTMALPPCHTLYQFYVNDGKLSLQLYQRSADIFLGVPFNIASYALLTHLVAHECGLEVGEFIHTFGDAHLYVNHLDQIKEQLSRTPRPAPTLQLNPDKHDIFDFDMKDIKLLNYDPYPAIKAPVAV
# [4] = system: CCRF-CEM; assay: Cell growth in human CCRF-CEM cells in presence of 10 uM hypoxanthine and 10 uM deoxycytidine relative to control; assay type: functional
# [5] = system: CCRF-CEM; assay: Cell growth in human CCRF-CEM cells at 30 nM in presence of 5 uM thymidine and 10 uM deoxycytidine relative to control; assay type: functional
# [6] = system: CCRF-CEM; assay: Cell growth in human CCRF-CEM cells in presence of thymidine and hypoxanthine and 10 uM deoxycytidine relative to control; assay type: functional
# [7] = system: CCRF-CEM; assay: Cell growth in human CCRF-CEM cells at 30 nM in presence of thymidine, hypoxanthine and 10 uM deoxycytidine; assay type: functional
# [8] = system: CCRF-CEM; assay: Cell growth in human CCRF-CEM cells in presence of 5 uM thymidine and 10 uM deoxycytidine relative to control; assay type: functional
# [9] = system: CCRF-CEM; assay: Cell growth in human CCRF-CEM cells at 30 nM in presence of 10 uM hypoxanthine and 10 uM deoxycytidine; assay type: functional
# [10] = target: T3, Dihydrofolate reductase (Escherichia coli, UniProt P0ABQ4)
# T3 sequence (P0ABQ4 whole entry): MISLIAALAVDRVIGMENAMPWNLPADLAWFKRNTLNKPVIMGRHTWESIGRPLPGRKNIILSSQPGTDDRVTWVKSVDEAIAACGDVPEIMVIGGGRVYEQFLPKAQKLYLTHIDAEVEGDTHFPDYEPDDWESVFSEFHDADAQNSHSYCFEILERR
# Description: Inhibition of Escherichia coli DHFR
# [11] = Cytotoxicity against human CCRF-CEM cells; assay type: cell-based
# [12] = Cytotoxicity against human MCF7 cells; assay type: cell-based
# [13] = Cytotoxicity against human PC3 cells; assay type: cell-based; conditions: PC-3 cells
# [14] = system: CCRF-CEM; assay: Growth inhibition of human CCRF-CEM cells at 1500 nM; assay type: functional
# [15] = target: Dihydrofolate reductase (Lactobacillus casei, UniProt P00381)
# Description: Inhibition of Lactobacillus casei DHFR
# [16] = system: SF-268; assay: Cytotoxicity against SF268 cells; assay type: functional; conditions: Homo sapiens
# [17] = Cytotoxicity against human HL60 cells; assay type: cell-based; conditions: HL-60 cells
# [18] = Cytotoxicity against human MDA-MB-435 cells; assay type: cell-based
# [19] = Cytotoxicity against human SR cells; assay type: cell-based
# [20] = Cytotoxicity against MDAN cells; assay type: cell-based, MDA-N; conditions: human
# [21] = target: T4, Dihydrofolate reductase (Homo sapiens, UniProt P00374)
# T4 sequence (P00374 whole entry): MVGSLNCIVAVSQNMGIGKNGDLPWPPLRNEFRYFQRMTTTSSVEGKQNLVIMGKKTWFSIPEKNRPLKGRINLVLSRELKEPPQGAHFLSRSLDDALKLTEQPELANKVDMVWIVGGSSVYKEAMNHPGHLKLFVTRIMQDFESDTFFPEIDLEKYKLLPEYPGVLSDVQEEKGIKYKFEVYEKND
# Description: Inhibition of human recombinant DHFR
# [22] = system: CCRF-CEM; assay: Cell growth in human CCRF-CEM cells relative to control; assay type: functional
# [23] = Cytotoxicity against human HOP92 cells; assay type: cell-based; conditions: HOP-92 cells
# [24] = Cytotoxicity against human 786-0 cells; assay type: cell-based
# [25] = Cytotoxicity against human HCT116 cells; assay type: cell-based; conditions: HCT-116 cells
# [26] = Cytotoxicity against human SW620 cells; assay type: cell-based; conditions: SW-620 cells
# [27] = target: Thymidylate synthase (Escherichia coli, UniProt C3SWJ7); assay: Inhibition of Escherichia coli thymidylate synthase
# [28] = Cytotoxicity against human NCI-H460 cells; assay type: cell-based
# [29] = Cytotoxicity against human K562 cells; assay type: cell-based
# [30] = Cytotoxicity against human A549 cells; assay type: cell-based
# [31] = Cytotoxicity against human SK-MEL-28 cells; assay type: cell-based
# [32] = system: CCRF-CEM; assay: Growth inhibition in human CCRF-CEM cells assessed as cell growth relative to control; assay type: functional; parameters: scale not given: the % may be the effect or the level left
# [33] = substrate: Nc1nc(N)c2c(CCCc3ccc(C(=O)N[C@@H](CCC(=O)O)C(=O)O)cc3)coc2n1; assay: (§1) Activity of human recombinant cytosolic FPGS relative to aminopterin
# [34] = substrate: Nc1nc(N)c2c(CCc3ccc(C(=O)N[C@@H](CCC(=O)O)C(=O)O)cc3)coc2n1; assay: as §1
# [35] = substrate: Nc1nc(N)c2c(CCCc3ccc(C(=O)N[C@@H](CCC(=O)O)C(=O)O)cc3)coc2n1; assay: Activity of human recombinant cytosolic FPGS
# Sequence of Thymidylate synthase (Homo sapiens, UniProt P04818) (P04818 whole entry): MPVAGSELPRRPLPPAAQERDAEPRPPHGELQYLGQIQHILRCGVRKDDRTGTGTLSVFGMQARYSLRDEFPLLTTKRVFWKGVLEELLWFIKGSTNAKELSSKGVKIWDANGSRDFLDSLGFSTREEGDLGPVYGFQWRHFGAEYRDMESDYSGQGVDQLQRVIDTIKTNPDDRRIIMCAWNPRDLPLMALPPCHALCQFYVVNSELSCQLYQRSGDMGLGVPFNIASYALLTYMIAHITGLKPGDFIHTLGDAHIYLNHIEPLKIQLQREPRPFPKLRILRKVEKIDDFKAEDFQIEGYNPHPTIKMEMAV
# Sequence of Thymidylate synthase (Escherichia coli, UniProt C3SWJ7) (C3SWJ7 whole entry): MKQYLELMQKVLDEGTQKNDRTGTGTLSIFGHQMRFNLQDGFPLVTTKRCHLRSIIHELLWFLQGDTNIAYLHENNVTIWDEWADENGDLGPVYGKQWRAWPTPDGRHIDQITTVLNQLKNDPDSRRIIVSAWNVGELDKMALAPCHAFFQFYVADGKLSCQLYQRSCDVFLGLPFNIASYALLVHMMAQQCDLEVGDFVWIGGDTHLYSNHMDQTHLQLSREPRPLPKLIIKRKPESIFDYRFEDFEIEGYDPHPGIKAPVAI
# Sequence of Dihydrofolate reductase (Lactobacillus casei, UniProt P00381) (P00381 whole entry): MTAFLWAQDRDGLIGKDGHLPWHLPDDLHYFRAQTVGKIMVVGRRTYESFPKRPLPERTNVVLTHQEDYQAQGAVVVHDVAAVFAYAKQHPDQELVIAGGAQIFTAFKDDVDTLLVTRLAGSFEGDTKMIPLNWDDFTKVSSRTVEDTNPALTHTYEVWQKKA
molecule,measurement,setting,value
Nc1nc(N)c2c(CCc3ccc(C(=O)N[C@@H](CCC(=O)O)C(=O)O)cc3)coc2n1,Ratio,[1],0.07
Nc1nc2[nH]cc(CCc3ccc(C(=O)N[C@@H](CCC(=O)O)C(=O)O)cc3)c2c(=O)[nH]1 [PEMETREXED],IC50,[2],19000 nM
same,IC50,[3],38000 nM
CN(Cc1cnc2nc(N)nc(N)c2n1)c1ccc(C(=O)N[C@@H](CCC(=O)O)C(=O)O)cc1 [METHOTREXATE],Activity,[4],13.5%
same,Activity,[5],16%
same,Activity,[6],73.5%
same,Activity,[7],74.5%
same,Activity,[8],12.5%
same,Activity,[9],15.5%
Nc1nc(N)c2c(CCCc3ccc(C(=O)N[C@@H](CCC(=O)O)C(=O)O)cc3)coc2n1,IC50,[10],7000 nM
same,GI50,[11],42.9 nM
same,Activity,[4],20%
same,Ratio,[1],1.4
same,GI50,[12],174 nM
same,GI50,[13],12.5 nM
same,inhibition at 1.5 µM,[14],80%
same,IC50,[15],11000 nM
same,GI50,[16],648 nM
same,GI50,[17],10 nM
same,IC50,[2],> 18000 nM
same,IC50,[3],> 100000 nM
same,GI50,[18],21.4 nM
same,GI50,[19],10 nM
same,GI50,[20],22.3 nM
same,Activity,[6],73.5%
same,IC50,[21],9000 nM
same,Activity,[22],21%
same,GI50,[23],95900 nM
same,GI50,[24],123 nM
same,GI50,[25],10 nM
same,GI50,[26],10 nM
same,Activity,[8],25.5%
same,IC50,[27],> 180000 nM
same,GI50,[28],10 nM
same,GI50,[29],10 nM
same,GI50,[30],16.6 nM
same,GI50,[31],100000 nM
Nc1nc(N)c2nc(CNc3ccc(C(=O)N[C@@H](CCC(=O)O)C(=O)O)cc3)cnc2n1,Ratio,[1],0.22
Nc1ccn([C@H]2C[C@H](O)[C@@H](CO)O2)c(=O)n1 [DOXECITINE],Activity,[32],97%
B1,Vmax,[33],0.42
same,Vmax,[34],0.65
same,Km,[35],0.3 µM
